Values of other authors in US8778914B2, “Bisphosphonate-prodrugs” (priority 2009, dated 2014).
Numbered stars: 1 amine (or outer) side, 2 acyl side, 3 side chain; on linkers, the order of the positions; unused ones are H or OH. Square brackets hold non-standard residues; d marks the D form. Side chains are listed from the residue outwards. Peptide text beside a SMILES is read from it. * marks the point of attachment. DAMPA = CN(Cc1cnc2nc(N)nc(N)c2n1)c1ccc(C(=O)*)cc1; Hexanoyl(6-maleimido) = O=C1C=CC(=O)N1CCCCCC(=O)*; γGlu = O=C(O)[C@H](CCC(=O)[*:2])N[*:1]

Tests used:
[1] = pH 5.0; F. Kratz et al., J. Med. Chem. 2002
plasmin = plasmin (Homo sapiens, UniProt P00747); details: releases (gamma-MTX); reported in A. Warnecke et al., Arch. Pharm. 2007
Chain of plasmin (P00747 581-810 limits assumed, species assumed): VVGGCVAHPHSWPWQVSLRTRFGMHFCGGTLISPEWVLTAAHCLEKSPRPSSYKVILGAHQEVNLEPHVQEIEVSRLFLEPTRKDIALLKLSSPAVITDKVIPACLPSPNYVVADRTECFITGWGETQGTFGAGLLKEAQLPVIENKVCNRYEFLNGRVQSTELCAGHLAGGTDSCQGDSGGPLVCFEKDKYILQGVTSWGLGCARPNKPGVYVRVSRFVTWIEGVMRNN
Chain of plasmin (P00747 97-580 partner limits assumed, species assumed): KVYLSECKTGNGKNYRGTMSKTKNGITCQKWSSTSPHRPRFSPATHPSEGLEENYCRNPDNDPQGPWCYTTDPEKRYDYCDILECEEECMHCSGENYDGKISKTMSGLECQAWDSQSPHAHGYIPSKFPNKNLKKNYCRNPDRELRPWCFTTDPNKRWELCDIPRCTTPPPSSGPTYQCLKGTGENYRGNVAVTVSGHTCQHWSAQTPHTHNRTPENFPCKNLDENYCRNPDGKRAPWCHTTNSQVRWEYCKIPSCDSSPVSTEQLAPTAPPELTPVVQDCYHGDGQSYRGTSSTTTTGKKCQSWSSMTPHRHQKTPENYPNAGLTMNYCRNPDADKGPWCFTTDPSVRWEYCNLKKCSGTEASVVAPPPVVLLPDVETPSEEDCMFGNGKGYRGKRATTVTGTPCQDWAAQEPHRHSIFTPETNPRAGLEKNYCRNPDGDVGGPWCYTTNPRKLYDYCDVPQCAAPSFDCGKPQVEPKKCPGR

Cathepsin B = Cathepsin B (Homo sapiens, UniProt P07858); details: releases (gamma-MTX); reported in A. Warnecke et al., Arch. Pharm. 2007

SMILES | acid-sensitive cleavage, release of doxorubicin [1] | cleavage by plasmin (plasmin) | cleavage by Cathepsin B (Cathepsin B)
COc1cccc2c1C(=O)c1c(O)c3c(c(O)c1C2=O)C[C@@](O)(/C(CO)=N/NC(=O)CCCCCN1C(=O)C=CC1=O)C[C@@H]3O[C@H]1C[C@H](N)[C@H](O)[C@H](C)O1 [DOXO-EMCH, 6-maleimidocaproylhydazone derivative of doxorubicin] | cleavable |  | 
C[C@@H](NC(=O)CCCCCN1C(=O)C=CC1=O)C(=O)N[C@@H](Cc1ccccc1)C(=O)N[C@@H](CCCCN)C(=O)N[C@@H](CCCCNC(=O)CC[C@H](NC(=O)c1ccc(N(C)Cc2cnc3nc(N)nc(N)c3n2)cc1)C(=O)O)C(=O)O [EMC-D-Ala-Phe-Lys-Lys-(gamma-MTX)-OH] ({Hexanoyl(6-maleimido)}-[dA]FKK([γGlu-DAMPA])-OH) |  | cleaved between Lys-Lys | cleaved between Lys-Lys
